We go through 17 compounds from patent US12404295B2, “(Hetero)aryl-methyl-thio-beta-D-galactopyranoside derivatives” (Idorsia Pharmaceuticals Ltd, priority 2019, dated 2025).

The target of the test is human Gal-3 (hGal-3) (Homo sapiens (Human), UniProt P17931). The experiment in a line: competitive binding assay: biotinylated hGal-3 binding to microplate-adsorbed asialofetuin (ASF). On the procedure: If not explicitly mentioned otherwise, the inhibition data refer to the binding of biotinylated human Gal-3 (hGal-3).
human Gal-3 (hGal-3), sequence (P17931 whole entry): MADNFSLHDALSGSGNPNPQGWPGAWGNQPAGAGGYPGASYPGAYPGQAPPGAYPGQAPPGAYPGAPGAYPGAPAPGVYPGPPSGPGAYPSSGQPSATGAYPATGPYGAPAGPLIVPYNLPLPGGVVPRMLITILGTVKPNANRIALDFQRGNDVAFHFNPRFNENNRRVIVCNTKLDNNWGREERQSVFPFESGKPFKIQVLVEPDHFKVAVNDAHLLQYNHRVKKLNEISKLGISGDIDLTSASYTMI
Evaluation of Compound Inhibitory Activity (IC50)
The inhibitory activity of compounds is determined in competitive binding assays.
Briefly, compounds are serially diluted in DMSO (working dilutions).
Plates are incubated for 3 hours at 4° C., then washed with cold assay buffer (3×50 uL), incubated for 1 hour with 25 μL/well of a streptavidin-peroxidase solution (diluted in assay buffer to 80 ng/mL) at 4° C., followed by further washing steps with assay buffer (3×50 uL). Finally, 25 μL/well of ABTS substrate is added.
The calculated IC50 values may fluctuate depending on the daily assay performance. Fluctuations of this kind are known to those skilled in the art. IC50 values from several measurements are given as mean values.

Setting [1] is: Table 11, read-out: IC50 (Gal-3 inhibition).
Where [2] appears, read: Gal-3 inhibition, binding of biotinylated hGal-3 to ASF, mean values, read-out: IC50.
Setting [3] is: Table 14, read-out: IC50 (Gal-3 inhibition).

pIC50: −log10 of the molar value. Read-outs that look alike come from different tables or passages of the source.

By pIC50 is commonly meant the negative decadic logarithm of the IC50, by convention in mol/L.

Turning to `CO[C@@H]1[C@@H](n2cc(-c3cc(F)c(F)c(F)c3)nn2)[C@@H](O)[C@@H](CO)O[C@H]1SC(c1ncccc1C)C1(O)CCC2(CCOCC2)CC1` (stereo partly drawn) [Example 2.72.126.I, 9-((((2S,3R,4S,5R,6R)-5-Hydroxy-6-(hydroxymethyl)-3-methoxy-4-(4-(3,4,5-trifluorophenyl)-1H-1,2,3-triazol-1-yl)tetrahydro-2H-pyran-2-yl)thio)(3-methylpyridin-2-yl)methyl)-3-oxaspiro[5.5]undecan-9-ol], the pIC50 under setting [1] is 6.89. On the same count and under the same terms, the figure for `CO[C@@H]1[C@@H](n2cc(-c3cc(F)c(F)c(F)c3)nn2)[C@@H](O)[C@@H](CO)O[C@H]1S[C@H](c1ncccc1C)[C@@]1(O)CCOC(C)(C)C1` [Example 2.43.126RR.I., (2R,3R,4S,5R,6S)-6-(((R)-((R)-4-Hydroxy-2,2-dimethyltetrahydro-2H-pyran-4-yl)(3-methylpyridin-2-yl)methyl)thio)-2-(hydroxymethyl)-5-methoxy-4-(4-(3,4,5-trifluorophenyl)-1H-1,2,3-triazol-1-yl)tetrahydro-2H-pyran-3-ol] is 6.14. For `CC(C)(O)C(S[C@@H]1O[C@H](CO)[C@H](O)[C@H](n2cc(-c3cc(F)c(F)c(F)c3)nn2)[C@H]1O)c1ccccc1Cl` (stereo partly drawn) [Example 2.31.111., (2S,3R,4S,5R,6R)-2-((1-(2-Chlorophenyl)-2-hydroxy-2-methylpropyl)thio)-6-(hydroxymethyl)-4-(4-(3,4,5-trifluorophenyl)-1H-1,2,3-triazol-1-yl)tetrahydro-2H-pyran-3,5-diol], under setting [2], the pIC50 was 6.39. Take `CO[C@@H]1[C@@H](n2cc(-c3cc(F)c(F)c(F)c3)nn2)[C@@H](O)[C@@H](CO)O[C@H]1S[C@@H](c1ncccc1C)[C@@]1(O)CCOC(C)(C)C1` [Example 2.43.126SR.I., (2R,3R,4S,5R,6S)-6-(((S)-((R)-4-Hydroxy-2,2-dimethyltetrahydro-2H-pyran-4-yl)(3-methylpyridin-2-yl)methyl)thio)-2-(hydroxymethyl)-5-methoxy-4-(4-(3,4,5-trifluorophenyl)-1H-1,2,3-triazol-1-yl)tetrahydro-2H-pyran-3-ol]: under setting [1], the pIC50 was 5.46.

On to `CO[C@@H]1[C@@H](n2cc(-c3ccc(F)c(F)c3F)nn2)[C@@H](O)[C@@H](CO)O[C@H]1SC(c1ncccc1C)C1(O)CCC(F)(F)CC1` (stereo partly drawn) [Example 21.44.126.I., (2R,3R,4S,5R,6S)-6-(((4,4-Difluoro-1-hydroxycyclohexyl)(3-methylpyridin-2-yl)methyl)thio)-2-(hydroxymethyl)-5-methoxy-4-(4-(2,3,4-trifluorophenyl)-1H-1,2,3-triazol-1-yl)tetrahydro-2H-pyran-3-ol], for which the negative-log IC50 (pIC50) under setting [3] was 7.22. Consider `CO[C@@H]1[C@@H](n2cc(-c3cc(F)c(F)c(F)c3)nn2)[C@@H](O)[C@@H](CO)O[C@H]1S[C@H](c1ccccc1C(F)(F)F)[C@]1(O)CCOC(C)(C)C1` [Example 2.43.112RS.I, (2R,3R,4S,5R,6S)-6-(((R)-((S)-4-Hydroxy-2,2-dimethyltetrahydro-2H-pyran-4-yl)(2-(trifluoromethyl)phenyl)methyl)thio)-2-(hydroxymethyl)-5-methoxy-4-(4-(3,4,5-trifluorophenyl)-1H-1,2,3-triazol-1-yl)tetrahydro-2H-pyran-3-ol], for which the pIC50 (Table 9, 2-OMe-Gal inhibitors, read-out: IC50 (Gal-3 inhibition)) was 6.85. Consider `CS(=O)(=O)N1CCC(O)(C(S[C@@H]2O[C@H](CO)[C@H](O)[C@H](n3cc(-c4cc(F)c(F)c(F)c4)nn3)[C@H]2O)c2ccccc2C(F)(F)F)CC1` (stereo partly drawn) [Example 2.47.112., (2S,3R,4S,5R,6R)-2-(((4-Hydroxy-1-(methylsulfonyl)piperidin-4-yl)(2-(trifluoromethyl)phenyl)methyl)thio)-6-(hydroxymethyl)-4-(4-(3,4,5-trifluorophenyl)-1H-1,2,3-triazol-1-yl)tetrahydro-2H-pyran-3,5-diol], for which, under setting [2], the pIC50 is 7.15. Same read-out and setting: with `CS(=O)(=O)N1CC(O)([C@@H](S[C@@H]2O[C@H](CO)[C@H](O)[C@H](n3cc(-c4cc(F)c(F)c(F)c4)nn3)[C@H]2O)c2ccccc2C(F)(F)F)C1` [Example 2..57.112S., (2S,3R,4S,5R,6R)-2-(((S)-(3-Hydroxy-1-(methylsulfonyl)azetidin-3-yl)(2-(trifluoromethyl)phenyl)methyl)thio)-6-(hydroxymethyl)-4-(4-(3,4,5-trifluorophenyl)-1H-1,2,3-triazol-1-yl)tetrahydro-2H-pyran-3,5-diol] the figure was 5.24.

For `CO[C@@H]1[C@@H](n2cc(-c3cc(F)c(F)c(F)c3)nn2)[C@@H](O)[C@@H](CO)O[C@H]1S[C@@H](c1ncccc1C)[C@]1(O)CCOC(C)(C)C1` [Example 2.43.126SS.I., (2R,3R,4S,5R,6S)-6-(((S)-((S)-4-Hydroxy-2,2-dimethyltetrahydro-2H-pyran-4-yl)(3-methylpyridin-2-yl)methyl)thio)-2-(hydroxymethyl)-5-methoxy-4-(4-(3,4,5-trifluorophenyl)-1H-1,2,3-triazol-1-yl)tetrahydro-2H-pyran-3-ol], the pIC50 under setting [1] is 5.72. Turning to `CS(=O)(=O)N1CC(O)(C(S[C@@H]2O[C@H](CO)[C@H](O)[C@H](n3cc(-c4cc(F)c(F)c(F)c4)nn3)[C@H]2O)c2ccccc2C(F)(F)F)C1` (stereo partly drawn) [Example 2..57.112., (2S,3R,4S,5R,6R)-2-(((3-Hydroxy-1-(methylsulfonyl)azetidin-3-yl)(2-(trifluoromethyl)phenyl)methyl)thio)-6-(Hydroxymethyl)-4-(4-(3,4,5-trifluorophenyl)-1H-1,2,3-triazol-1-yl)tetrahydro-2H-pyran-3,5-diol], the pIC50 under setting [2] is 6.66. Still for that read-out and setting: the figure for `COC(=O)N1CC(O)(C(S[C@@H]2O[C@H](CO)[C@H](O)[C@H](n3cc(-c4cc(F)c(F)c(F)c4)nn3)[C@H]2O)c2ccccc2C(F)(F)F)C1` (stereo partly drawn) [Example 2..58.112., Methyl 3-((((2S,3R,4S,5R,6R)-3,5-dihydroxy-6-(hydroxymethyl)-4-(4-(3,4,5-trifluorophenyl)-1H-1,2,3-triazol-1-yl)tetrahydro-2H-pyran-2-yl)thio)(2-(trifluoromethyl)phenyl)methyl)-3-hydroxyazetidine-1-carboxylate] is 6.40; for `O=C(NC1CC1)N1CC(O)(C(S[C@@H]2O[C@H](CO)[C@H](O)[C@H](n3cc(-c4cc(F)c(F)c(F)c4)nn3)[C@H]2O)c2ccccc2C(F)(F)F)C1` (stereo partly drawn) [Example 2..59.11.2, N-Cyclopropyl-3-((((2S,3R,4S,5R,6R)-3,5-dihydroxy-6-(hydroxymethyl)-4-(4-(3,4,5-trifluorophenyl)-1H-1,2,3-triazol-1-yl)tetrahydro-2H-pyran-2-yl)thio)(2-(trifluoromethyl)phenyl)methyl)-3-hydroxyazetidine-1-carboxamide] it is 6.54.

For the compound `CC(C)Cc1c([C@@H](S[C@@H]2O[C@H](CO)[C@H](O)[C@H](n3cc(-c4cc(F)c(F)c(F)c4)nn3)[C@H]2O)C2(O)CCC(F)(F)CC2)noc1C1CC1` [2.44.131 R., (2S,3R,4S,5R,6R)-2-(((R)-(5-Cyclopropyl-4-isobutylisoxazol-3-yl)(4,4-difluoro-1-hydroxycyclohexyl)methyl)thio)-6-(hydroxymethyl)-4-(4-(3,4,5-trifluorophenyl)-1H-1,2,3-triazol-1-yl)tetrahydro-2H-pyran-3,5-diol], under setting [2], the pIC50 is 7.30. Take `OC[C@H]1O[C@@H](S[C@H](c2ccccc2Cl)C2(O)CCC(F)(F)CC2)[C@H](O)[C@@H](n2cc(-c3cc(F)c(F)c(F)c3)nn2)[C@H]1O` [Example 2.44.111R, (2S,3R,4S,5R,6R)-2-(((R)-(2-Chlorophenyl)(4,4-difluoro-1-hydroxycyclohexyl)methyl)thio)-6-(hydroxymethyl)-4-(4-(3,4,5-trifluorophenyl)-1H-1,2,3-triazol-1-yl)tetrahydro-2H-pyran-3,5-diol]: under “Table 5, read-out: IC50 (Gal-3 inhibition)”, the pIC50 is 7.05. As to `OC[C@H](S[C@@H]1O[C@H](CO)[C@H](O)[C@H](n2cc(-c3cc(F)c(F)c(F)c3)nn2)[C@H]1O)c1ccccc1` [Example 2.30.100R., (2S,3R,4S,5R,6R)-2-(((R)-2-Hydroxy-1-phenylethyl)thio)-6-(hydroxymethyl)-4-(4-(3,4,5-trifluorophenyl)-1H-1,2,3-triazol-1-yl)tetrahydro-2H-pyran-3,5-diol], the pIC50 under setting [2] was 6.10. Consider `CO[C@@H]1[C@@H](n2cc(-c3cnc(F)c(C)c3)nn2)[C@@H](O)[C@@H](CO)O[C@H]1SC(c1ncccc1C)C1(O)CCC(F)(F)CC1` (stereo partly drawn) [Example 24.44.126.I., (2R,3R,4S,5R,6S)-6-(((4,4-Difluoro-1-hydroxycyclohexyl)(3-methylpyridin-2-yl)methyl)thio)-4-(4-(6-fluoro-5-methylpyridin-3-yl)-1H-1,2,3-triazol-1-yl)-2-(hydroxymethyl)-5-methoxytetrahydro-2H-pyran-3-ol], for which, under setting [3], the pIC50 is 6.48.

As for `CS(=O)(=O)N1CC(O)([C@H](S[C@@H]2O[C@H](CO)[C@H](O)[C@H](n3cc(-c4cc(F)c(F)c(F)c4)nn3)[C@H]2O)c2ccccc2C(F)(F)F)C1` [Example 2..57.112R., (2S,3R,4S,5R,6R)-2-(((R)-(3-Hydroxy-1-(methylsulfonyl)azetidin-3-yl)(2-(trifluoromethyl)phenyl)methyl)thio)-6-(hydroxymethyl)-4-(4-(3,4,5-trifluorophenyl)-1H-1,2,3-triazol-1-yl)tetrahydro-2H-pyran-3,5-diol], the pIC50 under setting [2] was 6.77.
